Common to all, as to type: cell-based
Experiment [1] has as its system SDMA (PRMT5 activity) in HAP1 MTAP-intact cell line. In words: SDMA in-cell western assay, HAP1 MTAP-intact. As to conditions: SDMA in-cell western, HAP1 MTAP-intact cells, 24 hours compound incubation. Here is the method:
(§1) The SAM-cooperative PRMT5 inhibitor, GSK3326595, was sourced from SelleckChem and maintained as a 10 mM DMSO stock. All test compounds are maintained as 10 mM DMSO stocks
(§2) On Day 0, MTAP-intact or MTAP-deleted cells are seeded in a 384-well plate, and incubated in a humidified, 5% CO2 tissue culture incubator for 16-24 hours. On Day 1, the test compounds are dispensed to wells at defined concentrations using a Tecan D300e digital dispenser (n=4), and the volume of DMSO is normalized to highest class volume. Each plate includes wells dosed with defined concentrations of GSK33226595 as a plate control. The compounds are incubated with cells for 24 hours in a humidified, 5% CO2 tissue culture incubator.
(§3) On Day 2, the compound-treated cells are fixed with a final concentration of 4% formaldehyde. The cells are then washed/permeabilized with 1×PBS+0.1% Triton X-100, and then blocked with 5% goat serum/1×TBS.
(§4) The cells are washed with 1×PBS+0.1% Triton X-100, and then washed again with ddH20. The plates are then imaged using a NIR fluorescent imager (LiCor Odyssey).
(§5) For data analysis, the SDMA signal is normalized to the DRAQ5 signal. Assay background is determined by the signal from wells treated with 1 μM GSK3326595, and subtracted from every well. The data are plotted as % of the DMSO control wells for the MTAP-intact and the MTAP-deleted cell lines independently, and fitted to the 4-parameter logistic (4-PL) Hill equation with maximal effect constrained to 0. The fit was performed using GraphPad Prism or the default IC50 fitting procedure in Dotmatics Studies 5.4 as part of a customized data analysis protocol.

The subject of experiment [2] is SDMA (PRMT5 activity) in HAP1 MTAP-deleted cell line. In words: SDMA in-cell western assay, HAP1 MTAP-deleted. As to conditions: for IC50 / IC90: SDMA in-cell western, HAP1 MTAP-deleted cells, 24 hours compound incubation; for Hap1 MTAP intact/deleted ratio: ratio of SDMA IC50 in HAP1 MTAP-intact to HAP1 MTAP-deleted cell line. On the procedure: as §1, §2, §3, §4, §5

The test system of experiment [3] is HAP1 MTAP-deleted cell line. The experiment in a line: Viability assay (CellTiter-Glo), HAP1 MTAP-deleted. The conditions noted are these: HAP1 MTAP-deleted cells, 7 days. On the procedure: All test compounds are maintained as 10 mM DMSO stocks.
On Day 0, MTAP-intact and MTAP-deleted cells are seeded in a 96-well plate, and incubated in a humidified, 5 or 10% CO2 tissue culture incubator for 16-24 hours. On Day 1, the test compounds are dispensed to wells at defined concentrations using a Tecan D300e digital dispenser (n=3), and the volume of DMSO is normalized to highest class volume (0.2%). The compound-treated plates are incubated for 7 days in a humidified, 5 or 10% CO2 tissue culture incubator.
On Day 7, the plates are removed from the tissue culture incubator and allowed to equilibrate to room temperature. Then either a ½% volume CellTiter-Glo Luminescent Cell Viability Assay reagent (Promega G7572) is added to each well, or the media is removed from every well and a 1:3 dilution of CellTiter-Glo 2.0 Cell Viability Assay reagent (Promega G9241) in 1×PBS is added. Ten minutes after addition, the luminescent signal is detected by an Envision plate reader. The data are plotted as % of the DMSO control wells for the MTAP-intact and the MTAP-deleted cell lines independently, and fitted to the 4-parameter logistic (4-PL) Hill equation with maximal effect constrained to 0. The fit was performed using GraphPad Prism or the default IC50 fitting procedure in Dotmatics Studies 5.4 as part of a customized data analysis protocol.

For `COc1ncc(NC(=O)C(=O)N2C[C@@H](C)CC[C@@H]2c2ccc3sc(CC4CCN(C)CC4)nc3c2)cc1C(N)=O` [Compound 20, 2-methoxy-5-(2-((2R,5S)-5-methyl-2-(2-((1-methylpiperidin-4-yl)methyl)benzo[d]thiazol-5-yl)piperidin-1-yl)-2-oxoacetamido)nicotinamide], the IC50 is more than 50 nM in experiment [1] (Homo sapiens, HAP1, 24 h); less than 5 nM in experiment [2] (Homo sapiens); less than 100 nM in experiment [3] (Homo sapiens, 168 h). Moreover, the IC90 in experiment [2] (Homo sapiens) was less than 75 nM. Moreover, in experiment [2], the “Hap1 MTAP intact/deleted ratio” value is reported as “A (“A” indicates an IC50 ratio greater than or equal to 30 fold)”.

Take `COc1ncc(NC(=O)C(=O)N2C[C@@H](C)CC[C@@H]2c2ccc3sc([C@@H]4CN(C)C(C)(C)C4)nc3c2)cc1C(N)=O` (single isomer, unassigned) [Compound 30]: the IC50 is more than 50 nM in experiment [1] (Homo sapiens, HAP1, 24 h); less than 5 nM in experiment [2] (Homo sapiens); less than 100 nM in experiment [3] (Homo sapiens, 168 h). Also, the IC90 in experiment [2] (Homo sapiens) was less than 75 nM. In experiment [2], the “Hap1 MTAP intact/deleted ratio” value was “B (“B” indicates an IC50 ratio greater than or equal to 15 fold but lower than 30 fold)”.

Take `CCc1cc(NC(=O)C(=O)N2C[C@@H](C)CC[C@@H]2c2ccc3sc([C@@H]4CCN(C)C[C@H]4OC)nc3c2)cnc1N` (single isomer, unassigned) [Compound 101]: the half-maximal inhibitory concentration (IC50) was 5 to 50 nM in experiment [1] (Homo sapiens, HAP1, 24 h); less than 5 nM in experiment [2] (Homo sapiens); less than 100 nM in experiment [3] (Homo sapiens, 168 h). This molecule also had a 90% effect concentration (IC90) in experiment [2] (Homo sapiens) of less than 75 nM. Also, the “Hap1 MTAP intact/deleted ratio” value in experiment [2] was “B (“B” indicates an IC50 ratio greater than or equal to 15 fold but lower than 30 fold)”.

With `CCc1cc(NC(=O)C(=O)N2C[C@@H](C)CC[C@@H]2c2ccc3cn([C@H]4CCCN(C)C4)nc3c2)cnc1N` [Compound 104], the IC50 in experiment [1] (Homo sapiens, HAP1, 24 h) was more than 50 nM; in experiment [2] (Homo sapiens), less than 5 nM; in experiment [3] (Homo sapiens, 168 h) it was less than 100 nM. The molecule also displayed an IC90 in experiment [2] (Homo sapiens) of less than 75 nM. Also, the “Hap1 MTAP intact/deleted ratio” value in experiment [2] is listed as “B (“B” indicates an IC50 ratio greater than or equal to 15 fold but lower than 30 fold)”.

`CCc1cc(NC(=O)C(=O)N2C[C@@H](C)CC[C@@H]2c2ccc3sc([C@H]4C[C@@H](N(C)C)C4)nc3c2)cnc1N` [Compound 40, N-(6-amino-5-ethyl-3-pyridyl)-2-oxo-2-[(2R,5S)-2-[2-[3-(dimethylamino)cyclobutyl]-1,3-benzothiazol-5-yl]-5-methyl-1-piperidyl]acetamide]: the IC50 in experiment [1] (Homo sapiens, HAP1, 24 h) was more than 50 nM; in experiment [2] (Homo sapiens), less than 5 nM; in experiment [3] (Homo sapiens, 168 h), less than 100 nM. For the same molecule, the IC90 in experiment [2] (Homo sapiens) was less than 75 nM. In addition, the “Hap1 MTAP intact/deleted ratio” value in experiment [2] is on record as “A (“A” indicates an IC50 ratio greater than or equal to 30 fold)”.

Turning to `COc1ncc(NC(=O)C(=O)N2C[C@@H](C)CC[C@@H]2c2ccc3cc(C#N)c(C4CCN(C)CC4)nc3c2)cc1C(N)=O` [Compound 113, 5-(2-((2R,5S)-2-(3-cyano-2-(1-methylpiperidin-4-yl)quinolin-7-yl)-5-methylpiperidin-1-yl)-2-oxoacetamido)-2-methoxynicotinamide], the IC50 in experiment [1] (Homo sapiens, HAP1, 24 h) was more than 50 nM; in experiment [2] (Homo sapiens) it was less than 5 nM; in experiment [3] (Homo sapiens, 168 h), less than 100 nM. The molecule further gave an IC90 in experiment [2] (Homo sapiens) of less than 75 nM. In addition, the “Hap1 MTAP intact/deleted ratio” value in experiment [2] is given as “A (“A” indicates an IC50 ratio greater than or equal to 30 fold)”.

Consider `CCc1cc(NC(=O)C(=O)N2C[C@@H](C)CC[C@@H]2c2ccc3sc(C4CN(C)C(C)(C)C4)nc3c2)cnc1N` (mixture of isomers) [Compound 13, N-(6-amino-5-ethylpyridin-3-yl)-2-((2R,5S)-5-methyl-2-(2-(1,5,5-trimethylpyrrolidin-3-yl)benzo[d]thiazol-5-yl)piperidin-1-yl)-2-oxoacetamide], for which the IC50 was 5 to 50 nM in experiment [1] (Homo sapiens, HAP1, 24 h); less than 5 nM in experiment [2] (Homo sapiens); less than 100 nM in experiment [3] (Homo sapiens, 168 h). The molecule further showed an IC90 in experiment [2] (Homo sapiens) of less than 75 nM. In addition, in experiment [2], the “Hap1 MTAP intact/deleted ratio” value is on record as “C (“C” indicates an IC50 ratio of less than 15 fold)”.

Regarding `CCc1cc(NC(=O)C(=O)N2C[C@@H](C)CC[C@@H]2c2ccc3sc([C@H]4CN5CC[C@@H]4C5)nc3c2)cnc1N` (racemic) [Compound 21, 2-((2R,5S)-2-(2-(1-azabicyclo[2.2.1]heptan-3-yl)benzo[d]thiazol-5-yl)-5-methylpiperidin-1-yl)-N-(6-amino-5-ethylpyridin-3-yl)-2-oxoacetamide], the IC50 in experiment [1] (Homo sapiens, HAP1, 24 h) was 5 to 50 nM; in experiment [2] (Homo sapiens), less than 5 nM; in experiment [3] (Homo sapiens, 168 h), less than 100 nM. This molecule gave an IC90 in experiment [2] (Homo sapiens) of less than 75 nM. Also, the “Hap1 MTAP intact/deleted ratio” value in experiment [2] is “C (“C” indicates an IC50 ratio of less than 15 fold)”.

Molecule `CCc1cc(NC(=O)C(=O)N2C[C@@H](C)CC[C@@H]2c2ccc3cn(C4CN(C)CC(C)(C)C4)nc3c2)cnc1N` (single isomer, unassigned) [Compound 114] returned an IC50 in experiment [1] of 5 to 50 nM. Further, in experiment [2], the IC50 was less than 5 nM, the concentration for an effect of 90% (IC90) was less than 75 nM and the “Hap1 MTAP intact/deleted ratio” value is “B (“B” indicates an IC50 ratio greater than or equal to 15 fold but lower than 30 fold)”. Also, in experiment [3], the concentration for half-maximal inhibition (IC50) is less than 100 nM.

Take `CCc1cc(NC(=O)C(=O)N2C[C@@H](C)CC[C@@H]2c2ccc3sc([C@H]4CN(C)CC(C)(C)C4)nc3c2)cnc1N` (single isomer, unassigned) [Compound 45]: the IC50 in experiment [1] (Homo sapiens, HAP1, 24 h) was 5 to 50 nM; in experiment [2] (Homo sapiens) it was less than 5 nM; in experiment [3] (Homo sapiens, 168 h) it was less than 100 nM. Further, the IC90 in experiment [2] (Homo sapiens) is less than 75 nM. For the same molecule, the “Hap1 MTAP intact/deleted ratio” value in experiment [2] was “B (“B” indicates an IC50 ratio greater than or equal to 15 fold but lower than 30 fold)”.

Consider `CCc1cc(NC(=O)C(=O)N2C[C@@H](C)CC[C@@H]2c2ccc3sc([C@@H]4C[C@@H](C)CN(C)C4)nc3c2)cnc1N` (relative stereo) [Compound 23, N-(6-amino-5-ethylpyridin-3-yl)-2-((2R,5S)-2-(2-(1,5-dimethylpiperidin-3-yl)benzo[d]thiazol-5-yl)-5-methylpiperidin-1-yl)-2-oxoacetamide], for which the IC50 in experiment [1] (Homo sapiens, HAP1, 24 h) was 5 to 50 nM; in experiment [2] (Homo sapiens), less than 5 nM; in experiment [3] (Homo sapiens, 168 h), less than 100 nM. The IC90 in experiment [2] (Homo sapiens) is less than 75 nM. Further, the “Hap1 MTAP intact/deleted ratio” value in experiment [2] is recorded as “B (“B” indicates an IC50 ratio greater than or equal to 15 fold but lower than 30 fold)”.

Regarding `COc1ncc(NC(=O)C(=O)N2C[C@@H](C)CC[C@@H]2c2ccc3sc(C[C@H](C)N(C)C)nc3c2)cc1C(N)=O` [Compound 98, 5-(2-((2R,5S)-2-(2-((S)-2-(dimethylamino)propyl)benzo[d]thiazol-5-yl)-5-methylpiperidin-1-yl)-2-oxoacetamido)-2-methoxynicotinamide], the IC50 in experiment [1] (Homo sapiens, HAP1, 24 h) is more than 50 nM. In experiment [2] (Homo sapiens), this molecule gave a concentration for half-maximal inhibition (IC50) of less than 5 nM and an IC90 of less than 75 nM. Moreover, the “Hap1 MTAP intact/deleted ratio” value in experiment [2] is recorded as “A (“A” indicates an IC50 ratio greater than or equal to 30 fold)”.

In experiment [3] (Homo sapiens, 168 h), `[2H][13C]([2H])([2H])N1CCC(c2nc3cc([C@H]4CC[C@H](C)CN4C(=O)C(=O)Nc4cnc(N)c(CC)c4)ccc3s2)CC1` [Compound 129, N-(6-amino-5-ethyl-3-pyridyl)-2-oxo-2-[(2R,5S)-5-methyl-2-[2-[1-(trideuterio(1^13C)methyl)-4-piperidyl]-1,3-benzothiazol-5-yl]-1-piperidyl]acetamide] displayed an IC50 of less than 100 nM.

In experiment [3] (Homo sapiens, 168 h), `[2H]C([2H])([2H])N1CCC(c2nc3cc([C@H]4CC[C@H](C)CN4C(=O)C(=O)Nc4cnc(OC)c(C(N)=O)c4)ccc3s2)CC1` [Compound 5, 2-methoxy-5-[[2-oxo-2-[(2R,5S)-5-methyl-2-[2-[1-(trideuteriomethyl)-4-piperidyl]-1,3-benzothiazol-5-yl]-1-piperidyl]acetyl]amino]pyridine-3-carboxamide] gave an IC50 of less than 100 nM.

The values are drawn from US20250171432A1, “COMPOUNDS AND METHODS OF USE” (Tango Therapeutics, Inc., priority 2022, published 2025).
